# Positions count from the first letter of the chain named.
# What was measured:
# wild type AR = target: T1, wild type AR (Homo sapiens, UniProt P10275); assay: MMTV-luciferase transcription assay in CV-1 cells, wild type AR; format: cell-based; conditions: wild type AR; values given as powers of ten without unit, or in words
# T1 construct: expressed in transfected cells; host or cells: CV-1
# T1 sequence (P10275 1-920): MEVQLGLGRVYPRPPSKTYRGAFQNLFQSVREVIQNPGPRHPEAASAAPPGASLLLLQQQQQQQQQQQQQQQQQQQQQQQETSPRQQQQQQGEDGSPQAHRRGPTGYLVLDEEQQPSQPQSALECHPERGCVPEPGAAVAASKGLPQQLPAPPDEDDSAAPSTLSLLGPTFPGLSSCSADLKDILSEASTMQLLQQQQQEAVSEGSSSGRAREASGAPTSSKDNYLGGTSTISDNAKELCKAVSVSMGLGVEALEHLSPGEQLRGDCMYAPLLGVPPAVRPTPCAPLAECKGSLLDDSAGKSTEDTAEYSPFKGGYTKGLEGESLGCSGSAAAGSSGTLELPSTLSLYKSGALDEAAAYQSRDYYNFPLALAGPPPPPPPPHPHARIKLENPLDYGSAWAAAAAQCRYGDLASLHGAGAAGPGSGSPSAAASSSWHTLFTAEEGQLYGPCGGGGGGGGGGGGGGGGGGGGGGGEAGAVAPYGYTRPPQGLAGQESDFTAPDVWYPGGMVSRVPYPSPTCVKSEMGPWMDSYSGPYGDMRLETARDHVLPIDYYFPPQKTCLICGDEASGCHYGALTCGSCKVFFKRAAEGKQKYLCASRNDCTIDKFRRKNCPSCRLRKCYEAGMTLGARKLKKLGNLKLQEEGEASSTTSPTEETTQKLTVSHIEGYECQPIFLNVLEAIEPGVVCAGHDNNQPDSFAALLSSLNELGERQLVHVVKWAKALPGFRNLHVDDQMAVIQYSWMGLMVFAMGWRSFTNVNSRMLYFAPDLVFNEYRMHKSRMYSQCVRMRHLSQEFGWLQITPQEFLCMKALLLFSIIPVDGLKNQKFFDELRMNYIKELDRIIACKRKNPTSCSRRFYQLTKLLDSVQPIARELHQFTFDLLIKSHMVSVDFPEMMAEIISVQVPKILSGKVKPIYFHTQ
# Text: (§1) These compounds were screened using an AR-responsive MMTV transcription assay in CV-1 cells, utilizing both wild type and T877A (LNCaP) AR. […]
# T877A (LNCaP) AR = target: T2, T877A (LNCaP) AR (Homo sapiens, UniProt P10275, T878A); assay: MMTV-luciferase transcription assay in CV-1 cells, T877A AR; format: cell-based; conditions: for MMTV transcription assay in CV-1 cells T877A (IC50 / inhibition) / IC50: T877A AR; for MMTV transcription assay in CV-1 cells T877A (IC50 / inhibition): values given as powers of ten without unit, or in words; for AR antagonism, potency in words (structure-activity discussion): MMTV transcription assay in CV-1 cells, compared with 1; for IC50: values given in μM, read-out: MMTV transcription assay in CV-1 cells T877A (IC50)
# T2 construct: expressed in transfected cells; host or cells: CV-1
# T2 sequence (P10275 1-920 T878A): T1 sequence (P10275 1-920) with T878A
# Text: as §1
Compound,MMTV transcription assay in CV-1 cells WT (IC50 / inhibition) (wild type AR),MMTV transcription assay in CV-1 cells T877A (IC50 / inhibition) (T877A (LNCaP) AR),"AR antagonism, potency in words (structure-activity discussion) (T877A (LNCaP) AR)",IC50 (T877A (LNCaP) AR)
COc1nccc([C@H]2[C@H](c3ccccc3)[C@@H](c3ccnc(OC)n3)[C@H]2c2ccccc2)n1 [DMP-6],No inhibition No inhibition,No inhibition No inhibition,,
COc1cc([C@H]2[C@H](c3ccc(Br)cc3)[C@@H](c3cc(OC)nc(OC)n3)[C@H]2c2ccc(Br)cc2)nc(OC)n1 [DMP-10],No inhibition,No inhibition,inactive,
c1ccc([C@H]2[C@H](c3ccccn3)[C@H](c3ccccc3)[C@H]2c2ccccn2)cc1 [DMP-13],No inhibition No inhibition,,,
Clc1cc([C@H]2[C@H](c3cccs3)[C@H](c3cc(Cl)nc(Cl)n3)[C@H]2c2cccs2)nc(Cl)n1 [DMP-28],Incomplete inhibition at 10^−5 Incomplete inhibition at 10^−5,,retained parent compound potency,2.6 µM
Clc1cc([C@@H]2[C@H](c3cc(Cl)nc(Cl)n3)[C@@H](c3cccs3)[C@H]2c2cccs2)nc(Cl)n1 [DMP-29],Incomplete inhibition at 10^−5 Incomplete inhibition at 10^−5,Incomplete inhibition at 10^−5,retained parent compound potency,
COc1nccc([C@H]2[C@H](c3ccccc3)[C@H](c3ccnc(OC)n3)[C@H]2c2ccccc2)n1 [DPM-5],No inhibition No inhibition,No inhibition No inhibition,,
COc1cc([C@H]2[C@H](c3ccsc3)[C@H](c3cc(OC)nc(OC)n3)[C@H]2c2ccsc2)nc(OC)n1 [DPM-8],Incomplete inhibition at 10^−5 Incomplete inhibition at 10^−5,,retained parent compound potency,
c1ccc([C@H]2[C@H](c3cnccn3)[C@H](c3ccccc3)[C@@H]2c2cnccn2)cc1 [DPM-11/20],No inhibition No inhibition,Mild inhibition at~10^−5,,
c1ccc([C@@H]2[C@H](c3ccccc3)[C@@H](c3cnccn3)[C@H]2c2cnccn2)cc1 [DPM-12],No inhibition No inhibition,No inhibition,,
c1ccc([C@@H]2[C@H](c3ccccc3)[C@@H](c3ccccn3)[C@H]2c2ccccn2)cc1 [DPM-14],No inhibition No inhibition,No inhibition,,
COc1cncc([C@@H]2[C@@H](c3ccccc3)[C@@H](c3ccccc3)[C@@H]2c2cncc(OC)n2)n1 [DPM-15],No inhibition,,decreased activity,
COc1cncc([C@@H]2[C@@H](c3ccccc3)[C@@H](c3ccccc3)[C@@H]2c2cncc(OC)n2)n1 [DPM-16],No inhibition,Slight inhibition at 10^−5,decreased activity,
COc1cncc([C@H]2[C@H](c3ccccc3)[C@@H](c3cncc(OC)n3)[C@H]2c2ccccc2)n1 [DPM-17],,,decreased activity,
COc1cncc([C@H]2[C@H](c3ccccc3)[C@H](c3cncc(OC)n3)[C@H]2c2ccccc2)n1 [DPM-18],No inhibition,,decreased activity,
Clc1cc([C@H]2[C@H](c3ccccc3)[C@H](c3cc(Cl)ncn3)[C@H]2c2ccccc2)ncn1 [DPM-26],Incomplete inhibition at 10^−5,,decreased potency,9 µM
